In US20080227797A1, “Pyridopyrimidine Derivatives as Pde4 Inhibitors for the Treatment of Inflammatory and Immune Diseases” (ASTRAZENECA AB, priority 2005, published 2008):

Biological target: recombinant Human Phosphodiesterase B2 (PDE4B2) (Homo sapiens, UniProt Q07343)
Experiment: Human Phosphodiesterase B2 Alpha Screen Assay
Type: biochemical
Conditions: cAMP substrate, Alpha Screen cAMP kit, 60 minutes at room temperature
Outline: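 Recombinant human PDE4B2 preincubated 15 min at RT with compound in 50 mM Tris pH 7.5, 8.3 mM MgCl2, 1.7 mM EGTA, 0.01% Brij35, then reacted with cAMP for 60 min at RT. Stopped with EDTA; AlphaScreen beads with biotinylated cAMP incubated 5 h in the dark before reading. IC50 from curve fitting.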

recombinant Human Phosphodiesterase B2 (PDE4B2), sequence (Q07343 1-564 isoform Q07343-2): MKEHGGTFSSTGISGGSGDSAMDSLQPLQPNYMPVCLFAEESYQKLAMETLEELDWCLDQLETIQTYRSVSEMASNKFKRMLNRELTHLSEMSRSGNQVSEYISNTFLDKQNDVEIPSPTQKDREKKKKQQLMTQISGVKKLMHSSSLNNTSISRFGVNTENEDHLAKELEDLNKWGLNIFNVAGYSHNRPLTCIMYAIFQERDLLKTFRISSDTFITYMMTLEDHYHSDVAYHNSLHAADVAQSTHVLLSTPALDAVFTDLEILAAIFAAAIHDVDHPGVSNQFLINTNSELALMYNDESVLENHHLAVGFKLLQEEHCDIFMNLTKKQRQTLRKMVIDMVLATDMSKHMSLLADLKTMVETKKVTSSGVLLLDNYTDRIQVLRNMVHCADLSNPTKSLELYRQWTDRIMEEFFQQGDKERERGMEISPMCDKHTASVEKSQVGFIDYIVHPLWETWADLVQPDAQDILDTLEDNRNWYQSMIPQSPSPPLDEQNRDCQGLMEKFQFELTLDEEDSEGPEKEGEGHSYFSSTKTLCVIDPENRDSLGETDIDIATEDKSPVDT

SMILES: COC(=O)c1cccc(-n2c(=O)n([C@H]3CC[C@@H](NC(=O)c4cn5ccccc5n4)CC3)c(=O)c3cc(F)cnc32)c1 [Example 69, methyl 3-[6-fluoro-3-{cis-4-[(imidazo[1,2-a]pyridin-2-ylcarbonyl)amino]cyclohexyl}-2,4-dioxo-3,4-dihydropyrido[2,3-d]pyrimidin-1(2H)-yl]benzoate]
- IC50: 1 nM

SMILES: COC(=O)c1cccc(-n2c(=O)n([C@H]3CC[C@@H](NC(=O)C4CC4)CC3)c(=O)c3cc(F)cnc32)c1 [Example 70, methyl 3-[3-{cis-4-[(cyclopropylcarbonyl)amino]cyclohexyl}-6-fluoro-2,4-dioxo-3,4-dihydropyrido[2,3-d]pyrimidin-1(2H)-yl]benzoate]
- IC50: 6.6 nM

SMILES: CS(=O)(=O)c1cccc(-n2c(=O)n([C@H]3CC[C@@H](NC(=O)C4CC4)CC3)c(=O)c3cc(F)cnc32)c1 [Example 71, N-{cis-4-[6-fluoro-1-[3-(methylsulfonyl)phenyl]-2,4-dioxo-1,4-dihydropyrido[2,3-d]pyrimidin-3(2H)-yl]cyclohexyl}cyclopropanecarboxamide]
- IC50: 41.2 nM

SMILES: Cc1ccc(O)c(C(=O)N[C@H]2CC[C@@H](n3c(=O)c4cc(F)cnc4n(-c4ccc(F)c(F)c4)c3=O)CC2)c1 [Example 72, N-{cis-4-[1-(3,4-difluorophenyl)-6-fluoro-2,4-dioxo-1,4-dihydropyrido[2,3-d]pyrimidin-3(2H)-yl]cyclohexyl}-2-hydroxy-5-methylbenzamide]
- IC50: 2.3 nM

SMILES: COC(=O)c1cccc(-n2c(=O)n([C@H]3CC[C@@H](NC(=O)C4CCN(C)CC4)CC3)c(=O)c3cc(F)cnc32)c1 [Example 73, methyl 3-[6-fluoro-3-(cis-4-{[(1-methylpiperidin-4-yl)carbonyl]amino}cyclohexyl)-2,4-dioxo-3,4-dihydropyrido[2,3-d]pyrimidin-1(2H)-yl]benzoate]
- IC50: 62.6 nM

SMILES: COC(=O)c1cccc(-n2c(=O)n([C@H]3CC[C@@H](NC(=O)c4ccc(CN(C)C)o4)CC3)c(=O)c3cc(F)cnc32)c1 [Example 74, methyl 3-[3-[cis-4-({5-[(dimethylamino)methyl]-2-furoyl}amino)cyclohexyl]-6-fluoro-2,4-dioxo-3,4-dihydropyrido[2,3-d]pyrimidin-1(2H)-yl]benzoate]
- IC50: 5.1 nM

SMILES: COC(=O)c1cccc(-n2c(=O)n([C@H]3CC[C@@H](NC(=O)C4CCCCC4)CC3)c(=O)c3cc(F)cnc32)c1 [Example 75, methyl 3-[3-{cis-4-[(cyclohexylcarbonyl)amino]cyclohexyl}-6-fluoro-2,4-dioxo-3,4-dihydropyrido[2,3-d]pyrimidin-1(2H)-yl]benzoate]
- IC50: 2.6 nM

SMILES: O=C(c1n[nH]c2ccccc12)N1CCC(n2c(=O)c3cc(F)cnc3n(-c3ccc(F)c(F)c3)c2=O)CC1 [Example 76, 1-(3,4-difluorophenyl)-6-fluoro-3-[1-(1H-indazol-3-ylcarbonyl)piperidin-4-yl]pyrido[2,3-d]pyrimidine-2,4(1H,3H)-dione]
- IC50: 9.5 nM

SMILES: O=C([C@H](O)c1ccccc1)N1CCC(n2c(=O)c3cc(F)cnc3n(-c3ccc(F)c(F)c3)c2=O)CC1 [Example 77, 1-(3,4-difluorophenyl)-6-fluoro-3-{1-[(2R)-2-hydroxy-2-phenylacetyl]piperidin-4-yl}pyrido[2,3-d]pyrimidine-2,4(1H,3H)-dione]
- IC50: 147 nM

SMILES: O=C(c1cc(CO)ccc1O)N1CCC(n2c(=O)c3cc(F)cnc3n(-c3ccc(F)c(F)c3)c2=O)CC1 [Example 78, 1-(3,4-difluorophenyl)-6-fluoro-3-{1-[2-hydroxy-5-(hydroxymethyl)benzoyl]piperidin-4-yl}pyrido[2,3-d]pyrimidine-2,4(1H,3H)-dione]
- IC50: 293 nM

SMILES: O=C(c1n[nH]c2ccccc12)N1CC[C@@H](n2c(=O)c3cc(F)cnc3n(-c3ccc(F)c(F)c3)c2=O)C1 [Example 79, 1-(3,4-difluorophenyl)-6-fluoro-3-[(3R)-1-(1H-indazol-3-ylcarbonyl)pyrrolidin-3-yl]pyrido[2,3-d]pyrimidine-2,4(1H,3H)-dione]
- IC50: 15.4 nM

SMILES: O=C([C@H](O)c1ccccc1)N1CC[C@@H](n2c(=O)c3cc(F)cnc3n(-c3ccc(F)c(F)c3)c2=O)C1 [Example 80, 1-(3,4-difluorophenyl)-6-fluoro-3-{(3R)-1-[(2R)-2-hydroxy-2-phenylacetyl]pyrrolidin-3-yl}pyrido[2,3-d]pyrimidine-2,4(1H,3H)-dione]
- IC50: 73.3 nM

SMILES: O=C([C@H](O)C1CCCCC1)N1CC[C@@H](n2c(=O)c3cc(F)cnc3n(-c3ccc(F)c(F)c3)c2=O)C1 [Example 81, 3-{(3R)-1-[(2R)-2-cyclohexyl-2-hydroxyacetyl]pyrrolidin-3-yl}-1-(3,4-difluorophenyl)-6-fluoropyrido[2,3-d]pyrimidine-2,4(1H,3H)-dione]
- IC50: 8.1 nM

SMILES: O=C(c1cc(CO)ccc1O)N1CC[C@@H](n2c(=O)c3cc(F)cnc3n(-c3ccc(F)c(F)c3)c2=O)C1 [Example 82, 1-(3,4-difluorophenyl)-6-fluoro-3-{(3R)-1-[2-hydroxy-5-(hydroxymethyl)benzoyl]pyrrolidin-3-yl}pyrido[2,3-d]pyrimidine-2,4(1H,3H)-dione]
- IC50: 71.8 nM

SMILES: O=C(c1n[nH]c2ccccc12)N1CC[C@H](n2c(=O)c3cc(F)cnc3n(-c3ccc(F)c(F)c3)c2=O)C1 [Example 83, 1-(3,4-difluorophenyl)-6-fluoro-3-[(3S)-1-(1H-indazol-3-ylcarbonyl)pyrrolidin-3-yl]pyrido[2,3-d]pyrimidine-2,4(1H,3H)-dione]
- IC50: 9.2 nM

SMILES: O=C([C@H](O)c1ccccc1)N1CC[C@H](n2c(=O)c3cc(F)cnc3n(-c3ccc(F)c(F)c3)c2=O)C1 [Example 84, 1-(3,4-difluorophenyl)-6-fluoro-3-{(3S)-1-[(2R)-2-hydroxy-2-phenylacetyl]pyrrolidin-3-yl}pyrido[2,3-d]pyrimidine-2,4(1H,3H)-dione]
- IC50: 57.3 nM

SMILES: O=C(N[C@H]1CC[C@@H](n2c(=O)c3cc(F)cnc3n(-c3ccc(F)c(F)c3)c2=O)CC1)c1ccc2[nH]ccc2c1 [Example 85, N-{cis-4-[1-(3,4-difluorophenyl)-6-fluoro-2,4-dioxo-1,4-dihydropyrido[2,3-d]pyrimidin-3(2H)-yl]cyclohexyl}-1H-indole-5-carboxamide]
- IC50: 0.996 nM

SMILES: O=C(N[C@H]1CC[C@@H](n2c(=O)c3cc(F)cnc3n(-c3ccc(F)c(F)c3)c2=O)CC1)c1cccc([N+](=O)[O-])c1 [Example 86, N-{cis-4-[1-(3,4-difluorophenyl)-6-fluoro-2,4-dioxo-1,4-dihydropyrido[2,3-d]pyrimidin-3(2H)-yl]cyclohexyl}-3-nitrobenzamide]
- IC50: 4.13 nM

SMILES: O=C(N[C@H]1CC[C@@H](n2c(=O)c3cc(F)cnc3n(-c3ccc(F)c(F)c3)c2=O)CC1)c1cc2ccccc2[nH]1 [Example 87, N-{cis-4-[1-(3,4-difluorophenyl)-6-fluoro-2,4-dioxo-1,4-dihydropyrido[2,3-d]pyrimidin-3(2H)-yl]cyclohexyl}-1H-indole-2-carboxamide]
- IC50: 0.885 nM

SMILES: O=C(N[C@H]1CC[C@@H](n2c(=O)c3cc(F)cnc3n(-c3ccc(F)c(F)c3)c2=O)CC1)c1ccc2[nH]cnc2c1 [Example 88, N-{cis-4-[1-(3,4-difluorophenyl)-6-fluoro-2,4-dioxo-1,4-dihydropyrido[2,3-d]pyrimidin-3(2H)-yl]cyclohexyl}-1H-benzimidazole-5-carboxamide]
- IC50: 3.38 nM

SMILES: N#Cc1ccc(C(=O)N[C@H]2CC[C@@H](n3c(=O)c4cc(F)cnc4n(-c4ccc(F)c(F)c4)c3=O)CC2)cc1 [Example 89, 4-cyano-N-{cis-4-[1-(3,4-difluorophenyl)-6-fluoro-2,4-dioxo-1,4-dihydropyrido[2,3-d]pyrimidin-3(2H)-yl]cyclohexyl}benzamide]
- IC50: 10.8 nM

SMILES: O=C(N[C@H]1CC[C@@H](n2c(=O)c3cc(F)cnc3n(-c3ccc(F)c(F)c3)c2=O)CC1)c1ccc2[nH]nnc2c1 [Example 90, N-{cis-4-[1-(3,4-difluorophenyl)-6-fluoro-2,4-dioxo-1,4-dihydropyrido[2,3-d]pyrimidin-3(2H)-yl]cyclohexyl}-1H-1,2,3-benzotriazole-5-carboxamide]
- IC50: 6.11 nM

SMILES: O=C(N[C@H]1CC[C@@H](n2c(=O)c3cc(F)cnc3n(-c3ccc(F)c(F)c3)c2=O)CC1)c1ccc2ncsc2c1 [Example 91, N-{cis-4-[1-(3,4-difluorophenyl)-6-fluoro-2,4-dioxo-1,4-dihydropyrido[2,3-d]pyrimidin-3(2H)-yl]cyclohexyl}-1,3-benzothiazole-6-carboxamide]
- IC50: 2.09 nM

SMILES: CC1=C(C(=O)N[C@H]2CC[C@@H](n3c(=O)c4cc(F)cnc4n(-c4ccc(F)c(F)c4)c3=O)CC2)SC2=NCCCN21 [Example 92, N-{cis-4-[1-(3,4-difluorophenyl)-6-fluoro-2,4-dioxo-1,4-dihydropyrido[2,3-d]pyrimidin-3(2H)-yl]cyclohexyl}-3-methyl-6,7-dihydro-5H-[1,3]thiazolo[3,2-a]pyrimidine-2-carboxamide]
- IC50: 7.83 nM

SMILES: O=C(N[C@H]1CC[C@@H](n2c(=O)c3cc(F)cnc3n(-c3ccc(F)c(F)c3)c2=O)CC1)c1csnn1 [Example 93, N-{cis-4-[1-(3,4-difluorophenyl)-6-fluoro-2,4-dioxo-1,4-dihydropyrido[2,3-d]pyrimidin-3(2H)-yl]cyclohexyl}-1,2,3-thiadiazole-4-carboxamide]
- IC50: 11.7 nM

SMILES: O=C(N[C@H]1CC[C@@H](n2c(=O)c3cc(F)cnc3n(-c3ccc(F)c(F)c3)c2=O)CC1)c1cn[nH]c1 [Example 94, N-{cis-4-[1-(3,4-difluorophenyl)-6-fluoro-2,4-dioxo-1,4-dihydropyrido[2,3-d]pyrimidin-3(2H)-yl]cyclohexyl}-1H-pyrazole-4-carboxamide]
- IC50: 5.31 nM

SMILES: O=C(N[C@H]1CC[C@@H](n2c(=O)c3cc(F)cnc3n(-c3ccc(F)c(F)c3)c2=O)CC1)c1ccsc1 [Example 95, N-{cis-4-[1-(3,4-difluorophenyl)-6-fluoro-2,4-dioxo-1,4-dihydropyrido[2,3-d]pyrimidin-3(2H)-yl]cyclohexyl}thiophene-3-carboxamide]
- IC50: 3.39 nM
